Reference: US20110190253A1, “METHOD FOR TREATING TUBERCULOSIS” (priority 2008, published 2011)

Test system: extensively drug-resistant (XDR) clinical strains of M. tuberculosis
Assay: microbe, parasite or virus in culture
Assay type: cell-based
Settings: for variability of MIC values among strains: thirteen XDR clinical isolates, clavulanate 2.5 μg ml^−1, data not shown

Structure (SMILES)	variability of MIC values among strains	MIC (Mycobacterium tuberculosis, read-out: MIC value) [µg/mL]
CC1(C)S[C@@H]2[C@H](NC(=O)[C@H](N)c3ccccc3)C(=O)N2[C@H]1C(=O)O [ampicillin]	substantial variability	
CC(=O)OCC1=C(C(=O)O)N2C(=O)[C@@H](NC(=O)Cc3cccs3)[C@H]2SC1 [cephalothin]	substantial variability	
C[C@@H](O)[C@H]1C(=O)N2C(C(=O)O)=C(S[C@@H]3CN[C@H](C(=O)N(C)C)C3)[C@H](C)[C@H]12 [meropenem]		≤ 1
